Experimental data reported in US12473304B2, “Heterocyclic PAD4 inhibitors” (BRISTOL-MYERS SQUIBB COMPANY, priority 2020, dated 2025).

biological target: human PAD4 (hPAD4) (Homo sapiens (Human), UniProt Q9UM07); experiment: RFMS Human PAD4 Functional Assay 1; type: biochemical; conditions: RFMS assay 1; 5 nM hPAD4, 250 μM BAEE substrate, 50 μM calcium, 37° C.
In short: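 Citrullination product read by RapidFire triple-quad MRM against a modified-citrulline internal standard, after TCA stop and 30 min phenyl glyoxal step at 37 °C. Reaction: 250 μM BAEE, 5 nM human PAD4, 90 min at 37 °C, pH 7.5 HEPES buffer with 50 μM calcium and 5 μM TPEN, following 30 min compound–enzyme preincubation (max 50 μM).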

human PAD4 (hPAD4), sequence (Q9UM07 whole entry): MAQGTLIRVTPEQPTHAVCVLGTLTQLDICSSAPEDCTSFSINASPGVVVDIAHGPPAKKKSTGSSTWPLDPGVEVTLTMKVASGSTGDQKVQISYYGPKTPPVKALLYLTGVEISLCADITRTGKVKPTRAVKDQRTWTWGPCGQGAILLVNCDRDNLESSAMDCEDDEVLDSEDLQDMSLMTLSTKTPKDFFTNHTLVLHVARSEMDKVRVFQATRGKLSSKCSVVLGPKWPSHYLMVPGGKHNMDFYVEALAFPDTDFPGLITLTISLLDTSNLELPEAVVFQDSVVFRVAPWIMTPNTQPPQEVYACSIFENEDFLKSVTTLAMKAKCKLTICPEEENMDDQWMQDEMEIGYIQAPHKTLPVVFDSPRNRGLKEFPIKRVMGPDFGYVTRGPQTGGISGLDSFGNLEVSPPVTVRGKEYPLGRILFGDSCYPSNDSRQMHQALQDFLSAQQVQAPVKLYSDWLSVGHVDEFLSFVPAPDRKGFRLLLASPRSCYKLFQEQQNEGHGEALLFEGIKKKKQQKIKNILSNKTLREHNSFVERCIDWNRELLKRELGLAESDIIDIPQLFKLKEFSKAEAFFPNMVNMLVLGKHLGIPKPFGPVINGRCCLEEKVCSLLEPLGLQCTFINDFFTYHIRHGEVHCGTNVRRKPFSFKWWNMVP

Row | SMILES | IC50 [nM]
1 | COc1cc(C(=O)N2CCC[C@@H](N)C2)cn2nc(-c3cc4ccnc(OCC5CNC(=O)C5)c4n3CC3CC3)c(C)c12 (single isomer, unassigned; isomer 2) [Example 603] | 100
2 | COc1cc(C(=O)N2CC3CCC2[C@@H]3N)cn2nc(-c3cc4ccnc(OCC5CNC(=O)C5)c4n3CC3CC3)c(C)c12 (single isomer, unassigned; isomer 2) [Example 606] | 50
3 | Cc1c(-c2cc3ccnc(OCC4CNC(=O)C4)c3n2CC2CC2)nn2cc(C(=O)N3C[C@H](N)C[C@@H](F)C3)ccc12 (single isomer, unassigned; isomer 2) [Example 615] | 70
4 | Cc1c(-c2cc3ccnc(OCC4CNC(=O)C4)c3n2CC2CC2)nn2cc(C(=O)N3CCC[C@@H](N)C3)ccc12 (single isomer, unassigned; isomer 2) [Example 619] | 40
5 | COc1cc(C(=O)N2CC3CCC2[C@H]3N)cn2nc(-c3cc4ccnc(OC[C@H]5CCC(=O)N5)c4n3CC3CC3)c(C)c12 (stereo in doubt) [Example 607, (5R)-5-(((2-(6-((7S)-7-Amino-2-azabicyclo[2.2.1]heptane-2-carbonyl)-4-methoxy-3-methylpyrazolo[1,5-a]pyridin-2-yl)-1-(cyclopropylmethyl)-1H-pyrrolo[2,3-c]pyridin-7-yl)oxy)methyl)pyrrolidin-2-one] | 50
6 | COc1cc(C(=O)N2CC3CCC2[C@@H]3N)cn2nc(-c3cc4cccnc4n3CC3CC3)c(C)c12 (stereo partly drawn) [Example 1, ((7R)-7-Amino-2-azabicyclo[2.2.1]heptan-2-yl)(2-(1-(cyclopropylmethyl)-1H-pyrrolo[2,3-b]pyridin-2-yl)-4-methoxy-3-methylpyrazolo[1,5-a]pyridin-6-yl)methanone] | 280
7 | COc1cc(C(=O)N2CC3CCC2[C@@H]3N)cn2nc(-c3cc4ccc(C5CC5)nc4n3CC3CC3)c(C)c12 (stereo partly drawn) [Example 6, ((7R)-7-Amino-2-azabicyclo[2.2.1]heptan-2-yl)(2-(6-cyclopropyl-1-(cyclopropylmethyl)-1H-pyrrolo[2,3-b]pyridin-2-yl)-4-methoxy-3-methylpyrazolo[1,5-a]pyridin-6-yl)methanone] | 32
8 | COc1cc(C(=O)N2CC3CCC2[C@@H]3N)cn2nc(-c3cc4ccc(-c5ccn6c(C)nnc6c5)nc4n3CC3CC3)c(C)c12 (stereo partly drawn) [Example 8, ((7R)-7-Amino-2-azabicyclo[2.2.1]heptan-2-yl)(2-(1-(cyclopropylmethyl)-6-(3-methyl-[1,2,4]triazolo[4,3-a]pyridin-7-yl)-1H-pyrrolo[2,3-b]pyridin-2-yl)-4-methoxy-3-methylpyrazolo[1,5-a]pyridin-6-yl)methanone] | 37
9 | COc1cc(C(=O)N2CC3CCC2[C@@H]3N)cn2nc(-c3cc4ccc(N5CC(OC)C5)nc4n3CC3CC3)c(C)c12 (stereo partly drawn) [Example 13, ((7R)-7-Amino-2-azabicyclo[2.2.1]heptan-2-yl)(2-(1-(cyclopropylmethyl)-6-(3-methoxyazetidin-1-yl)-1H-pyrrolo[2,3-b]pyridin-2-yl)-4-methoxy-3-methylpyrazolo[1,5-a]pyridin-6-yl)methanone] | 163
10 | COc1cc(C(=O)N2C[C@H](N)C[C@@H](F)C2)cn2nc(-c3cc4cccnc4n3CC3CC3)c(C)c12 [Example 14, ((3R,5R)-3-Amino-5-fluoropiperidin-1-yl)(2-(1-(cyclopropylmethyl)-1H-pyrrolo[2,3-b]pyridin-2-yl)-4-methoxy-3-methylpyrazolo[1,5-a]pyridin-6-yl)methanone] | 906
11 | COc1cc(C(=O)N2C[C@H](N)C[C@@H](F)C2)cn2nc(-c3cc4ccc(-c5ccc6c(c5)C(=O)NC6)nc4n3CC3CC3)c(C)c12 [Example 16, 6-(2-(6-((3R,5R)-3-Amino-5-fluoropiperidine-1-carbonyl)-4-methoxy-3-methylpyrazolo[1,5-a]pyridin-2-yl)-1-(cyclopropylmethyl)-1H-pyrrolo[2,3-b]pyridin-6-yl)isoindolin-1-one] | 407
12 | COc1cc(C(=O)N2C[C@H](N)C[C@@H](F)C2)cn2nc(-c3cc4ccc(C)nc4n3CC3CC3)c(C)c12 [Example 17, ((3R,5R)-3-Amino-5-fluoropiperidin-1-yl)(2-(1-(cyclopropylmethyl)-6-methyl-1H-pyrrolo[2,3-b]pyridin-2-yl)-4-methoxy-3-methylpyrazolo[1,5-a]pyridin-6-yl)-methanone] | 75
13 | COc1cc(C(=O)N2C[C@H](N)C[C@@H](F)C2)cn2nc(-c3cc4ccc(C5CC5)nc4n3CC3CC3)c(C)c12 [Example 19, ((3R,5R)-3-Amino-5-fluoropiperidin-1-yl)(2-(6-cyclopropyl-1-(cyclopropylmethyl)-1H-pyrrolo[2,3-b]pyridin-2-yl)-4-methoxy-3-methylpyrazolo[1,5-a]pyridin-6-yl)methanone] | 168
14 | COc1cc(C(=O)N2C[C@H](N)C[C@@H](F)C2)cn2nc(-c3cc4ccc(-c5ccc6c(c5)CNC6=O)nc4n3CC3CC3)c(C)c12 [Example 20, 5-(2-(6-((3R,5R)-3-Amino-5-fluoropiperidine-1-carbonyl)-4-methoxy-3-methylpyrazolo[l,5-a]pyridin-2-yl)-1-(cyclopropylmethyl)-1H-pyrrolo[2,3-b]pyridin-6-yl)isoindolin-1-one] | 116
15 | COc1cc(C(=O)N2C[C@H](N)C[C@@H](F)C2)cn2nc(-c3cc4ccc(-c5ccn6c(C)nnc6c5)nc4n3CC3CC3)c(C)c12 [Example 21, ((3R,5R)-3-Amino-5-fluoropiperidin-1-yl)(2-(1-(cyclopropylmethyl)-6-(3-methyl-[1,2,4]triazolo[4,3-a]pyridin-7-yl)-1H-pyrrolo[2,3-b]pyridin-2-yl)-4-methoxy-3-methylpyrazolo[1,5-a]pyridin-6-yl)methanone] | 91
16 | COc1cc(C(=O)N2CC3CCC2[C@@H]3N)cn2nc(-c3cc4ccccc4n3CC3CC3)c(C)c12 (stereo partly drawn) [Example 22, ((7R)-7-Amino-2-azabicyclo[2.2.1]heptan-2-yl)(2-(1-(cyclopropylmethyl)-1H-indol-2-yl)-4-methoxy-3-methylpyrazolo[1,5-a]pyridin-6-yl)methanone] | 2150

Next, values leading:

Row | IC50 [nM] | SMILES
17 | 380 | COc1cc(C(=O)N2CC3CCC2[C@@H]3N)cn2nc(-c3cc4ccc(Cl)nc4n3CC3CC3)c(C)c12 (stereo partly drawn) [Example 2, ((7R)-7-Amino-2-azabicyclo[2.2.1]heptan-2-yl)(2-(6-chloro-1-(cyclopropylmethyl)-1H-pyrrolo[2,3-b]pyridin-2-yl)-4-methoxy-3-methylpyrazolo[1,5-a]pyridin-6-yl)methanone]
18 | 60 | COc1cc(C(=O)N2CC3CCC2[C@@H]3N)cn2nc(-c3cc4ccc(-c5ccc6c(c5)C(=O)NC6)nc4n3CC3CC3)c(C)c12 (stereo partly drawn) [Example 3, 6-(2-(6-((7R)-7-Amino-2-azabicyclo[2.2.1]heptane-2-carbonyl)-4-methoxy-3-methylpyrazolo[1,5-a]pyridin-2-yl)-1-(cyclopropylmethyl)-1H-pyrrolo[2,3-b]pyridin-6-yl)isoindolin-1-one]
19 | 68 | COc1cc(C(=O)N2CC3CCC2[C@@H]3N)cn2nc(-c3cc4ccc(C)nc4n3CC3CC3)c(C)c12 (stereo partly drawn) [Example 4, ((7R)-7-Amino-2-azabicyclo[2.2.1]heptan-2-yl)(2-(1-(cyclopropylmethyl)-6-methyl-1H-pyrrolo[2,3-b]pyridin-2-yl)-4-methoxy-3-methylpyrazolo[1,5-a]pyridin-6-yl)methanone]
20 | 27 | COc1cc(C(=O)N2CC3CCC2[C@@H]3N)cn2nc(-c3cc4ccc(-c5ccc6c(c5)CNC6=O)nc4n3CC3CC3)c(C)c12 (stereo partly drawn) [Example 5, 5-(2-(6-((7R)-7-Amino-2-azabicyclo[2.2.1]-heptane-2-carbonyl)-4-methoxy-3-methylpyrazolo[1,5-a]pyridin-2-yl)-1-(cyclopropylmethyl)-1H-pyrrolo[2,3-b]pyridin-6-yl)isoindolin-1-one]
21 | 412 | COc1cc(C(=O)N2CC3CCC2[C@@H]3N)cn2nc(-c3cc4ccc(-c5cnn(C(C)C)c5)nc4n3CC3CC3)c(C)c12 (stereo partly drawn) [Example 7, ((7R)-7-Amino-2-azabicyclo[2.2.1]heptan-2-yl)(2-(1-(cyclopropylmethyl)-6-(1-isopropyl-1H-pyrazol-4-yl)-1H-pyrrolo[2,3-b]pyridin-2-yl)-4-methoxy-3-methylpyrazolo[1,5-a]pyridin-6-yl)methanone]
22 | 120 | COc1cc(C(=O)N2CC3CCC2[C@@H]3N)cn2nc(-c3cc4ccc(-c5cccc(O)c5F)nc4n3CC3CC3)c(C)c12 (stereo partly drawn) [Example 9, ((7R)-7-Amino-2-azabicyclo[2.2.1]heptan-2-yl)(2-(1-(cyclopropylmethyl)-6-(2-fluoro-3-hydroxyphenyl)-1H-pyrrolo[2,3-b]pyridin-2-yl)-4-methoxy-3-methylpyrazolo[1,5-a]pyridin-6-yl)methanone]
23 | 159 | COc1cc(C(=O)N2CC3CCC2[C@@H]3N)cn2nc(-c3cc4ccc(-c5ccc(O)c(F)c5)nc4n3CC3CC3)c(C)c12 (stereo partly drawn) [Example 10, ((7R)-7-Amino-2-azabicyclo[2.2.1]heptan-2-yl)(2-(1-(cyclopropylmethyl)-6-(3-fluoro-4-hydroxyphenyl)-1H-pyrrolo[2,3-b]pyridin-2-yl)-4-methoxy-3-methylpyrazolo[1,5-a]pyridin-6-yl)methanone]
24 | 1370 | COc1cc(C(=O)N2CC3CCC2[C@@H]3N)cn2nc(-c3cc4ccc(-c5ccc(OC(F)F)cc5)nc4n3CC3CC3)c(C)c12 (stereo partly drawn) [Example 11, ((7R)-7-Amino-2-azabicyclo[2.2.1]heptan-2-yl)(2-(1-(cyclopropylmethyl)-6-(4-(difluoromethoxy)phenyl)-1H-pyrrolo[2,3-b]pyridin-2-yl)-4-methoxy-3-methylpyrazolo[1,5-a]pyridin-6-yl)methanone]
25 | 2320 | COc1cc(C(=O)N2CC3CCC2[C@@H]3N)cn2nc(-c3cc4ccc(-c5ccc(OC(F)F)c(F)c5)nc4n3CC3CC3)c(C)c12 (stereo partly drawn) [Example 12, ((7R)-7-Amino-2-azabicyclo[2.2.1]heptan-2-yl)(2-(1-(cyclopropylmethyl)-6-(4-(difluoromethoxy)-3-fluorophenyl)-1H-pyrrolo[2,3-b]pyridin-2-yl)-4-methoxy-3-methylpyrazolo[1,5-a]pyridin-6-yl)methanone]
